Reference: ChEMBL document CHEMBL1201862, “PubChem BioAssay data set” (2004)
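Interpolation was linear, between the two tested concentrations surrounding the appropriate level; five concentrations were tested over 48 hours in 96-well plates. GI50 marks 50% less growth.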 Calls of active or inactive are those of the source. No stated cut-off is given here; in the data, active = GI50 up to about 1.1 µM and inactive = higher.

Tests used:
Experiment in all cases: growth of human tumour cells (NCI), 48 h
786-0 = system: 786-0
A498 = system: A498
A549 = system: A549
ACHN = system: ACHN
BT-549 = system: BT-549
CAKI-1 = system: CAKI-1
CCRF-CEM = system: CCRF-CEM
COLO 205 = system: COLO 205
DU-145 = system: DU-145
EKVX = system: EKVX
HCC 2998 = system: HCC 2998
HCT-116 = system: HCT-116
HCT-15 = system: HCT-15
HL-60 = system: HL-60
HOP-92 = system: HOP-92
HT-29 = system: HT-29
Hs-578T = system: Hs-578T
IGROV-1 = system: IGROV-1
K562 = system: K562
KM12 = system: KM12
LOX IMVI = system: LOX IMVI
M14 = system: M14
MCF7 = system: MCF7
MDA-MB-231 = system: MDA-MB-231
MDA-MB-435 = system: MDA-MB-435
MDA-N = system: MDA-N
MOLT-4 = system: MOLT-4
Malme-3M = system: Malme-3M
NCI-H226 = system: NCI-H226
NCI-H23 = system: NCI-H23
NCI-H460 = system: NCI-H460
NCI-H522 = system: NCI-H522
NCI/ADR-RES = system: NCI/ADR-RES
OVCAR-3 = system: OVCAR-3
OVCAR-4 = system: OVCAR-4
OVCAR-5 = system: OVCAR-5
OVCAR-8 = system: OVCAR-8
PC-3 = system: PC-3
RPMI-8226 = system: RPMI-8226
RXF 393 = system: RXF 393
SF-268 = system: SF-268
SF-295 = system: SF-295
SF-539 = system: SF-539
SK-MEL-28 = system: SK-MEL-28
SK-MEL-2 = system: SK-MEL-2
SK-MEL-5 = system: SK-MEL-5
SK-OV-3 = system: SK-OV-3
SN12C = system: SN12C
SNB-19 = system: SNB-19
SNB-75 = system: SNB-75
SR = system: SR
SW-620 = system: SW-620
T47D = system: T47D
U-251 = system: U-251
UACC-257 = system: UACC-257
UACC-62 = system: UACC-62
UO-31 = system: UO-31
HOP-62 = system: HOP-62
TK-10 = system: TK-10

Measured: GI50

c1ccc(C2C3=C(CCCC3)Nc3nc4cc5ccccc5cc4n32)cc1 (stereo not given)
inactive: 786-0 > 100 µM | A498 > 100 µM | A549 > 100 µM | ACHN > 100 µM | BT-549 > 100 µM | CAKI-1 > 100 µM | CCRF-CEM > 100 µM | COLO 205 > 100 µM | DU-145 > 100 µM | EKVX > 100 µM | HCC 2998 > 100 µM | HCT-116 > 100 µM | HL-60 > 100 µM | HOP-92 > 100 µM | HT-29 > 100 µM | Hs-578T > 100 µM | IGROV-1 > 100 µM | K562 > 100 µM | KM12 > 100 µM | LOX IMVI > 100 µM | M14 > 100 µM | MCF7 > 100 µM | MDA-MB-231 > 100 µM | MDA-MB-435 > 100 µM | MDA-N > 100 µM | MOLT-4 > 100 µM | Malme-3M > 100 µM | NCI-H226 > 100 µM | NCI-H23 > 100 µM | NCI-H460 > 100 µM | NCI-H522 > 100 µM | NCI/ADR-RES > 100 µM | OVCAR-3 > 100 µM | OVCAR-4 > 100 µM | OVCAR-5 > 100 µM | OVCAR-8 > 100 µM | PC-3 > 100 µM | RPMI-8226 > 100 µM | RXF 393 > 100 µM | SF-268 > 100 µM | SF-295 > 100 µM | SF-539 > 100 µM | SK-MEL-28 > 100 µM | SK-MEL-2 > 100 µM | SK-MEL-5 > 100 µM | SK-OV-3 > 100 µM | SN12C > 100 µM | SNB-19 > 100 µM | SNB-75 > 100 µM | SR > 100 µM | SW-620 > 100 µM | T47D > 100 µM | U-251 > 100 µM | UACC-257 > 100 µM | UACC-62 > 100 µM | UO-31 > 100 µM
> 100 µM: HCT-15

c1ccc(/C(=N\Nc2nc3ccccc3[nH]2)c2ccccn2)cc1
active: 786-0 0.31 µM | A498 0.916 µM | A549 0.596 µM | ACHN 0.268 µM | CAKI-1 0.425 µM | CCRF-CEM 0.0959 µM | COLO 205 < 0.0207 µM | EKVX 0.47 µM | HCT-116 0.0362 µM | HOP-62 0.324 µM | HOP-92 0.238 µM | HT-29 0.0101 µM | IGROV-1 0.262 µM | K562 0.222 µM | KM12 0.735 µM | LOX IMVI 0.516 µM | M14 0.361 µM | MCF7 0.148 µM | MDA-MB-231 0.415 µM | MDA-MB-435 0.755 µM | MDA-N 0.762 µM | MOLT-4 0.012 µM | Malme-3M 0.687 µM | NCI-H226 0.256 µM | NCI-H23 0.381 µM | NCI-H460 0.617 µM | NCI-H522 0.25 µM | NCI/ADR-RES 0.284 µM | OVCAR-3 0.169 µM | OVCAR-4 0.208 µM | OVCAR-5 0.733 µM | OVCAR-8 0.254 µM | PC-3 0.182 µM | RPMI-8226 0.242 µM | RXF 393 0.716 µM | SF-268 0.443 µM | SF-539 0.388 µM | SK-MEL-5 0.427 µM | SK-OV-3 0.342 µM | SN12C 0.415 µM | SNB-75 0.531 µM | SR 0.348 µM | SW-620 0.204 µM | T47D 0.136 µM | TK-10 0.314 µM | U-251 0.407 µM | UACC-257 0.298 µM | UACC-62 0.82 µM | UO-31 0.291 µM
0.277 µM: HCT-15
inactive: BT-549 1.19 µM | DU-145 2.13 µM | HCC 2998 1.73 µM | Hs-578T 5.5 µM | SF-295 1.69 µM | SK-MEL-28 1.14 µM | SK-MEL-2 4.09 µM | SNB-19 1.22 µM

Cc1ccc(/C=C2\CCC/C(=C\c3ccc(O)c(CN4CCCCC4)c3)C2=O)cc1
3.02 µM: HCT-15
inactive: 786-0 3.72 µM | A498 3.1 µM | A549 9.4 µM | ACHN 5.61 µM | BT-549 6.62 µM | CAKI-1 14.6 µM | COLO 205 5.2 µM | DU-145 4.91 µM | EKVX 12.6 µM | HCC 2998 4.46 µM | HCT-116 2.74 µM | HL-60 3.52 µM | HOP-62 15.3 µM | HOP-92 9.71 µM | HT-29 1.87 µM | Hs-578T 7.78 µM | IGROV-1 8.02 µM | K562 3.56 µM | KM12 3.01 µM | LOX IMVI 3.18 µM | M14 3.73 µM | MCF7 4.44 µM | MDA-MB-231 5.41 µM | MDA-MB-435 3.41 µM | MDA-N 4.22 µM | MOLT-4 3.6 µM | Malme-3M 17.3 µM | NCI-H226 7.55 µM | NCI-H23 5.64 µM | NCI-H460 3.96 µM | NCI-H522 3.85 µM | NCI/ADR-RES 4.07 µM | OVCAR-3 10.9 µM | OVCAR-4 11.1 µM | OVCAR-5 17.4 µM | OVCAR-8 2.97 µM | PC-3 8.05 µM | RPMI-8226 5.08 µM | RXF 393 14.1 µM | SF-268 3.14 µM | SF-295 10.7 µM | SF-539 9.42 µM | SK-MEL-28 15.7 µM | SK-MEL-2 19.9 µM | SK-MEL-5 6.1 µM | SK-OV-3 13.2 µM | SN12C 9.82 µM | SNB-19 16.2 µM | SNB-75 6.49 µM | SR 3.71 µM | SW-620 3.6 µM | T47D 13.4 µM | TK-10 14.6 µM | U-251 5.27 µM | UACC-257 5.09 µM | UACC-62 3.92 µM | UO-31 11.2 µM

CCN(CC)c1nc(=O)c(C(=O)C(C)(C)C)c(C(C)(C)C)o1
inactive: 786-0 > 100 µM | A498 > 100 µM | A549 > 100 µM | ACHN > 100 µM | BT-549 > 100 µM | CAKI-1 > 100 µM | CCRF-CEM > 100 µM | COLO 205 > 100 µM | DU-145 > 100 µM | EKVX > 100 µM | HCC 2998 > 100 µM | HCT-116 > 100 µM | HL-60 > 100 µM | HOP-62 > 100 µM | HOP-92 > 100 µM | HT-29 > 100 µM | Hs-578T > 100 µM | IGROV-1 > 100 µM | K562 > 100 µM | KM12 > 100 µM | LOX IMVI > 100 µM | M14 > 100 µM | MCF7 > 100 µM | MDA-MB-231 > 100 µM | MDA-MB-435 > 100 µM | MDA-N > 100 µM | MOLT-4 > 100 µM | Malme-3M > 100 µM | NCI-H226 > 100 µM | NCI-H23 > 100 µM | NCI-H460 > 100 µM | NCI-H522 > 100 µM | NCI/ADR-RES > 100 µM | OVCAR-4 > 100 µM | OVCAR-5 > 100 µM | OVCAR-8 > 100 µM | PC-3 > 100 µM | RPMI-8226 > 100 µM | RXF 393 > 100 µM | SF-268 > 100 µM | SF-295 > 100 µM | SF-539 > 100 µM | SK-MEL-28 > 100 µM | SK-MEL-2 > 100 µM | SK-MEL-5 > 100 µM | SK-OV-3 > 100 µM | SN12C > 100 µM | SNB-19 98.4 µM | SNB-75 > 100 µM | SR > 100 µM | SW-620 > 100 µM | T47D > 100 µM | TK-10 > 100 µM | U-251 > 100 µM | UACC-257 > 100 µM | UACC-62 > 100 µM
> 100 µM: HCT-15
